Results: ChEMBL document CHEMBL5576052, “Design, synthesis, and biological evaluation of new bis-benzylisoquinoline-based analogues as potential neuromuscular blocking agents” (Bioorg Med Chem Lett, 2024)

Assays:
Format in all cases: functional
Oryctolagus cuniculus [1] = experiment: Neuromuscular blocking in rabbit model of propofol-induced anesthesia assessed as time duration of 25 to 90 percent recovery indices at 0.06 mg/kg of inductive dose with continuous infusion of compound measured for 2 hrs by train-of-four response method
Oryctolagus cuniculus [2] = experiment: Neuromuscular blocking in rabbit model of propofol-induced anesthesia assessed as maximal blockade at 27.27 nmol/kg by train-of-four response method relative to control
Oryctolagus cuniculus [3] = experiment: Neuromuscular blocking in rabbit model of propofol-induced anesthesia assessed as time duration of 75 to 90 percent recovery indices at 0.06 mg/kg of inductive dose with continuous infusion of compound measured for 1 hr by train-of-four response method
Oryctolagus cuniculus [4] = experiment: Neuromuscular blocking in rabbit model of propofol-induced anesthesia assessed as onset time at 272.7 nmol/kg by train-of-four response method
Oryctolagus cuniculus [5] = experiment: Neuromuscular blocking in rabbit model of propofol-induced anesthesia assessed as time duration of 25 to 75 percent recovery indices at 272.7 nmol/kg by train-of-four response method
Oryctolagus cuniculus [6] = experiment: Neuromuscular blocking in rabbit model of propofol-induced anesthesia assessed as time duration of 25 to 90 percent recovery indices at 272.7 nmol/kg by train-of-four response method
Oryctolagus cuniculus [7] = experiment: Neuromuscular blocking in rabbit model of propofol-induced anesthesia assessed as effective blocking time by measuring duration from administration to 25 percent recovery at 272.7 nmol/kg by train-of-four response method
Oryctolagus cuniculus [8] = experiment: Neuromuscular blocking in rabbit model of propofol-induced anesthesia assessed as time duration of 25 to 75 percent recovery indices at 0.06 mg/kg of inductive dose with continuous infusion of compound measured for 0.5 hrs by train-of-four response method
Oryctolagus cuniculus [9] = experiment: Neuromuscular blocking in rabbit model of propofol-induced anesthesia assessed as time duration of 25 to 75 percent recovery indices at 0.06 mg/kg of inductive dose with continuous infusion of compound measured for 1 hr by train-of-four response method
Oryctolagus cuniculus [10] = experiment: Neuromuscular blocking in rabbit model of propofol-induced anesthesia assessed as time duration of 25 to 75 percent recovery indices at 27.27 nmol/kg by train-of-four response method
Oryctolagus cuniculus [11] = experiment: Neuromuscular blocking in rabbit model of propofol-induced anesthesia assessed as onset time at 27.27 nmol/kg by train-of-four response method
Oryctolagus cuniculus [12] = experiment: Neuromuscular blocking in rabbit model of propofol-induced anesthesia assessed as time duration of 25 to 90 percent recovery indices at 0.06 mg/kg of inductive dose with continuous infusion of compound measured for 0.5 hrs by train-of-four response method
Oryctolagus cuniculus [13] = experiment: Neuromuscular blocking in rabbit model of propofol-induced anesthesia assessed as effective blocking time by measuring duration from administration to 25 percent recovery at 27.27 nmol/kg by train-of-four response method
Oryctolagus cuniculus [14] = experiment: Neuromuscular blocking in rabbit model of propofol-induced anesthesia assessed as time duration of 25 to 90 percent recovery indices at 0.06 mg/kg of inductive dose with continuous infusion of compound measured for 1 hr by train-of-four response method
Oryctolagus cuniculus [15] = experiment: Neuromuscular blocking in rabbit model of propofol-induced anesthesia assessed as time duration of 75 to 90 percent recovery indices at 0.06 mg/kg of inductive dose with continuous infusion of compound measured for 2 hrs by train-of-four response method
Oryctolagus cuniculus [16] = experiment: Neuromuscular blocking in rabbit model of propofol-induced anesthesia assessed as maximal blockade at 272.7 nmol/kg by train-of-four response method relative to control
Oryctolagus cuniculus [17] = experiment: Neuromuscular blocking in rabbit model of propofol-induced anesthesia assessed as time duration of 25 to 75 percent recovery indices at 0.06 mg/kg of inductive dose with continuous infusion of compound measured for 2 hrs by train-of-four response method
Oryctolagus cuniculus [18] = experiment: Neuromuscular blocking in rabbit model of propofol-induced anesthesia assessed as time duration of 25 to 90 percent recovery indices at 27.27 nmol/kg by train-of-four response method
Oryctolagus cuniculus [19] = experiment: Neuromuscular blocking in rabbit model of propofol-induced anesthesia assessed as duration of time for maximal blockade at 27.27 nmol/kg by train-of-four response method
Oryctolagus cuniculus [20] = experiment: Neuromuscular blocking in rabbit model of propofol-induced anesthesia assessed as duration of time for maximal blockade at 272.7 nmol/kg by train-of-four response method
Oryctolagus cuniculus [21] = experiment: Neuromuscular blocking in rabbit model of propofol-induced anesthesia assessed as time duration of 75 to 90 percent recovery indices at 0.06 mg/kg of inductive dose with continuous infusion of compound measured for 0.5 hrs by train-of-four response method

Row | SMILES | Time (Oryctolagus cuniculus [1]) | Emax at 0.02727 µmol/kg (Oryctolagus cuniculus [2]) | Time (Oryctolagus cuniculus [3]) | Time (Oryctolagus cuniculus [4]) | Time (Oryctolagus cuniculus [5]) | Time (Oryctolagus cuniculus [6]) | Time (Oryctolagus cuniculus [7]) | Time (Oryctolagus cuniculus [8]) | Time (Oryctolagus cuniculus [9]) | Time (Oryctolagus cuniculus [10]) | Time (Oryctolagus cuniculus [11]) | Time (Oryctolagus cuniculus [12]) | Time (Oryctolagus cuniculus [13]) | Time (Oryctolagus cuniculus [14]) | Time (Oryctolagus cuniculus [15]) | Emax at 0.2727 µmol/kg (Oryctolagus cuniculus [16]) | Time (Oryctolagus cuniculus [17]) | Time (Oryctolagus cuniculus [18]) | Time (Oryctolagus cuniculus [19]) | Time (Oryctolagus cuniculus [20]) | also measured
1 | COc1cc2c(cc1OC)[C@@H](Cc1cc(OC)c(OC)c(OC)c1)[N@+](C)(CCCOC(=O)CC/C=C/CCC(=O)OCCC[N@+]1(C)CCc3cc(OC)c(OC)cc3[C@H]1Cc1cc(OC)c(OC)c(OC)c1)CC2.[Cl-].[Cl-] | 7.75 min | 100% | 2.67 min | 0.67 min | 11.25 min | 13.92 min | 19.58 min | 7.13 min | 6.96 min | 9.22 min | 1.88 min | 10.73 min | 5.58 min | 9.63 min | 3.17 min | 100% | 4.58 min | 15.08 min | 4.25 min | 14.67 min | Time (Oryctolagus cuniculus [21]): 3.6 min
2 | COc1cc2c(cc1OC)[C@@H](Cc1cc(OC)c(OC)c(OC)c1)[N+](C)(CCC(=O)OCCCCOC(=O)CC[N+]1(C)CCc3cc(OC)c(OC)cc3[C@H]1Cc1cc(OC)c(OC)c(OC)c1)CC2.O=S(=O)([O-])c1ccccc1.O=S(=O)([O-])c1ccccc1 (some centres not stated) | – | – | – | 1.25 min | 8.17 min | 13.67 min | 23.08 min | – | – | – | – | – | – | – | – | 100% | – | – | – | 18.58 min | –
3 | COc1cc2c(cc1OC)[C@@H](Cc1cc(OC)c(OC)c(OC)c1)[N+](C)(CCCOC(=O)CCCC(=O)OCCC[N+]1(C)CCc3cc(OC)c(OC)cc3[C@H]1Cc1cc(OC)c(OC)c(OC)c1)CC2.[Cl-].[Cl-] (some centres not stated) | – | 100% | – | 0.75 min | 7.67 min | 12 min | 73.08 min | – | – | 7.75 min | 2.58 min | – | 11.67 min | – | – | 100% | – | 11.77 min | 8.08 min | 66.5 min | –
4 | COc1cc2c(cc1OC)[C@@H](Cc1cc(OC)c(OC)c(OC)c1)[N+](C)(CCCOC(=O)CC/C=C/CCC(=O)OCCC[N+]1(C)CCc3cc(OC)c(OC)cc3[C@H]1Cc1cc(OC)c(OC)c(OC)c1)CC2.[Cl-].[Cl-] (some centres not stated) [MIVACURIUM CHLORIDE] | 9 min | 100% | 3.29 min | 0.79 min | 6.54 min | 9.71 min | 18.57 min | 8 min | 8.5 min | 7.75 min | 1.58 min | 11.5 min | 7.92 min | 11.79 min | 4.83 min | 100% | 4.92 min | 11.42 min | 4.42 min | 15.79 min | Time (Oryctolagus cuniculus [21]): 3.5 min
5 | COc1cc2c(cc1OC)[C@@H](Cc1cc(OC)c(OC)c(OC)c1)[N+](C)(CCC(=O)OCC#CC#CCOC(=O)CC[N+]1(C)CCc3cc(OC)c(OC)cc3[C@H]1Cc1cc(OC)c(OC)c(OC)c1)CC2.O=S(=O)([O-])c1ccccc1.O=S(=O)([O-])c1ccccc1 (some centres not stated) | – | – | – | 1.42 min | 6.92 min | 12 min | 5.83 min | – | – | – | – | – | – | – | – | 100% | – | – | – | 4.75 min | –
6 | COc1cc2c(cc1OC)[C@@H](Cc1cc(OC)c(OC)c(OC)c1)[N+](C)(CCCOC(=O)CC(C)(C)CC(=O)OCCC[N+]1(C)CCc3cc(OC)c(OC)cc3[C@H]1Cc1cc(OC)c(OC)c(OC)c1)CC2.[Cl-].[Cl-] (some centres not stated) | – | – | – | 1.25 min | 9.92 min | 12.58 min | 21.58 min | – | – | – | – | – | – | – | – | 100% | – | – | – | 18.75 min | –
